Measured values reported in patent publication US20230174486A1, “NON-LYSOSOMAL GLUCOSYLCERAMIDASE INHIBITORS AND USES THEREOF” (ALECTOS THERAPEUTICS lNC., priority 2020, published 2023).

Experiments:
[1] = target: T1, human GBA2 (Homo sapiens, UniProt Q9HCG7); assay: Inhibition of GBA2 in cell lysate (4-methylumbelliferone-β-D glucopyranoside substrate); format: biochemical; conditions: homogenate of HEK293T cells stably overexpressing human GBA2, pH 5.5, 37° C., GCase inhibitor present
T1 construct: cellular homogenate
T1 sequence (Q9HCG7 1-927): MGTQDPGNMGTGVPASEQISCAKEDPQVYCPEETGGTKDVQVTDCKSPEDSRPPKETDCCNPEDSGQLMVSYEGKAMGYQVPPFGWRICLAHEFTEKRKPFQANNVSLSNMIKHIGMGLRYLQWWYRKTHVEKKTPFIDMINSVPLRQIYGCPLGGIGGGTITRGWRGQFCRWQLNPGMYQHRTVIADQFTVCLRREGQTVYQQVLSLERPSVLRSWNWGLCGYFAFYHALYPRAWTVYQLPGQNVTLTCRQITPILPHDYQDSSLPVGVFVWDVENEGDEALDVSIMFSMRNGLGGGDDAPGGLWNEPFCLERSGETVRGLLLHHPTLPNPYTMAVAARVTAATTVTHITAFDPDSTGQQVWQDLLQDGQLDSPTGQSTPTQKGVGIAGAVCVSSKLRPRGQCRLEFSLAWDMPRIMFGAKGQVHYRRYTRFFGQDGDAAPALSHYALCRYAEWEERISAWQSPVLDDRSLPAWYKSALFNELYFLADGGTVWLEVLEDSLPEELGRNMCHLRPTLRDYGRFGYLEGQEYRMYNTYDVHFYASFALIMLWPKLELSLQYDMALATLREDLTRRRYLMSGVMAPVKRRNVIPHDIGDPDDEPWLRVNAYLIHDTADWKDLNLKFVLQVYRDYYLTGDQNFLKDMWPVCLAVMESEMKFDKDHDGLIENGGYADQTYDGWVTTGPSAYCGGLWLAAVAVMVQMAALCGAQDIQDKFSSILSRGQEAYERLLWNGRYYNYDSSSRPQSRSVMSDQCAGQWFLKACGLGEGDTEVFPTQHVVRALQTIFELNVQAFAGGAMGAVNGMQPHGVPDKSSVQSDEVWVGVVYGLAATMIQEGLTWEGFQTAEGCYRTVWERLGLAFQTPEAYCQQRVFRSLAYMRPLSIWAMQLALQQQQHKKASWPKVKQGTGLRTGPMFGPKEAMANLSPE
Method: Stable GBA2-expressing HEK293T cells were generated as follows. The PCR-amplified human GBA2 (GBA2 nucleotide accession number BC011363) using the following primers: Sense 5’---CGCAAATGGGCGGTAGGCGTG---3’ and antisense 5’---TAGTCAGCCATGGGGCGGAGA ---3’) was cloned into pLenti-GIII-CMV by ABM Inc. The correctness of the construct was verified by sequencing. Lentivirus particles containing GBA2 in the pLenti-GIII-CMV plasmid were prepared using a third Generation Virus Packaging Mix (ABM cat# LV053-G074) in HEK293T cells and supplied as a virus particle suspension. The virus suspension was used for infection of HEK293T cells. Cell populations stably expressing human GBA2 were selected using puromycin for several weeks as determined by activity assays and western blot.
Various concentrations of test compounds were prepared in DMSO and then diluted into buffer consisting of 100 mM citric acid, 200 mM disodium phosphate with 1% v/v C10E6, pH 5.5. Cellular homogenates (0.25 mg/mL) of the stable HEK293T-overexpressing GBA2 cell line were preincubated for 10 min on ice with an inhibitor of GCase (20 µM (6R,7R,8S)-8-ethyl-4-azaspiro[2.5]octane-6,7-diol). The reaction solution consisted of 20 µL of 750 µM 4-methylumbelliferone-β-D glucopyranoside in 5% DMSO in the same buffer, 20 µL of GBA2-cellular homogenate pre-treated with (6R,7R,8S)-8-ethyl-4-azaspiro[2.5]octane-6,7-diol and 20 µL of various concentrations of test compound in 10% DMSO in the same buffer. The final concentrations in the reaction were 0.083 mg/mL GBA2-cellular homogenate, 250 µM 4-methylumbelliferone-β-D glucopyranoside, and various concentrations of inhibitor. The inhibitor and GBA2-cellular homogenate were preincubated together for 5 min at 37° C. The reaction was initiated by addition of substrate and allowed to proceed for 20 min at 37° C. to assess GBA2 activity. Reactions were stopped by the addition of an equal volume (60 µL) of 0.5 M NaOH, 0.3 M glycine, pH 10.5. Fluorescence was measured on a Biotek Synergy H4 plate reader at wavelengths of 365 nm for excitation and 450 nm for emission. Incubations without added enzyme or added inhibitors were used to define no enzyme activity and maximal enzyme activity, respectively. IC50 values were determined by fitting the data to a log[inhibitor concentration] versus response curve using GraphPad Prism. IC50 values were calculated as the concentration of inhibitor required to inhibit GBA2 activity by 50%.

[2] = target: T2, human non-lysosomal glucosylceramidase (GBA2) (Homo sapiens, UniProt Q9HCG7); assay: Binding specificity for GBA2 over other molecules (ratio of Ki or IC50 values); format: biochemical; conditions: qualitative statement, no values or other enzyme given
T2 sequence (Q9HCG7 1-927): T1 sequence (Q9HCG7 1-927)
From the text: In some embodiments, one or more of the compounds according to the invention may specifically bind a GBA2. In alternative embodiments, one or more of the compounds according to the invention may specifically bind the active site of a GBA2. […] In alternative embodiments, one or more of the compounds according to the invention may specifically bind the human non-lysosomal glucosylceramidase (GBA2) over the human lysosomal glucosylceramidase (GCase) and/or the human cytosolic glucosylceramidase (GBA3). In alternative embodiments, one or more of the compounds according to the invention may specifically bind the human non-lysosomal glucosylceramidase (GBA2) over the human glucosylceramide synthase (GCS). In alternative embodiments, one or more of the compounds according to the invention may specifically bind the human non-lysosomal glucosylceramidase (GBA2) over an intestinal alpha-glucosidase, where the intestinal alpha-glucosidase may be a sucrase-isomaltase or a maltase-glucoamylase.

Compound	GBA2 IC50 [1]	binding specificity, Ki(other molecule)/Ki(GBA2) or IC50(other molecule)/IC50(GBA2) [2]
OC[C@H]1[C@@H](O)[C@H](O)[C@@H](O)CN1CCc1c(F)cc(C2CCOCC2)cc1F [Example 21, (2S,3R,4R,5S)-1-(2,6-difluoro-4-(tetrahydro-2H-pyran-4-yl)phenethyl)-2-(hydroxymethyl)piperidine-3,4,5-triol]	∗∗∗	enhanced binding specificity
OC[C@H]1[C@@H](O)[C@H](O)[C@@H](O)CN1CC1Cc2ccccc2C1 [Example 15, (2S,3R,4R,5S)-1-((2,3-dihydro-1H-inden-2-yl)methyl)-2-(hydroxymethyl)piperidine-3,4,5-triol]	∗∗∗	enhanced binding specificity
OC[C@H]1[C@@H](O)[C@H](O)[C@@H](O)CN1CC1CCN(c2ccc(F)cc2)CC1 [Example 24, (2S,3R,4R,5S)-1-((1-(4-fluorophenyl)piperidin-4-yl)methyl)-2-(hydroxymethyl)piperidine-3,4,5-triol]	∗∗∗	enhanced binding specificity
OC[C@@H]1[C@@H](O)[C@H](O)[C@@H](O)CN1CCc1c(F)cccc1F [Example 4, (2R,3R,4R,5S)-1-(2,6-difluorophenethyl)-2-(hydroxymethyl)piperidine-3,4,5-triol]	∗∗∗	enhanced binding specificity
C[C@H](CN1C[C@H](O)[C@@H](O)[C@H](O)[C@H]1CO)c1ccccc1 (single isomer, unassigned) [Example 8]	∗∗∗	enhanced binding specificity
OC[C@H]1[C@@H](O)[C@H](O)[C@@H](O)CN1C[C@H]1CCN(c2ncccc2C(F)(F)F)C1 [Example 25, (2S,3R,4R,5S)-2-(hydroxymethyl)-1—(((R)—1-(3-(trifluoromethyl)pyridin-2-yl)pyrrolidin-3-yl)methyl)piperidine-3,4,5-triol]	∗∗∗	enhanced binding specificity
OC[C@H]1[C@@H](O)[C@H](O)[C@@H](O)CN1C[C@@H]1CCCN(c2ncccc2C(F)(F)F)C1 [Example 31, (2S,3R,4R,5S)-2-(hydroxymethyl)-1—(((S)—1-(3-(trifluoromethyl)pyridin-2-yl)piperidin-3-yl)methyl)piperidine-3,4,5-triol]	∗∗∗	enhanced binding specificity
CCCCOc1cc(F)c(CCN2C[C@H](O)[C@@H](O)[C@H](O)[C@@H]2CO)c(F)c1 [Example 23, (2S,3R,4R,5S)-1-(4-butoxy-2,6-difluorophenethyl)-2-(hydroxymethyl)piperidine-3,4,5-triol]	∗∗∗	enhanced binding specificity
OC[C@H]1[C@@H](O)[C@H](O)[C@@H](O)CN1C[C@H]1CCCN(c2ncccc2C(F)(F)F)C1 [Example 29, (2S,3R,4R,5S)-2-(hydroxymethyl)-1—(((R)—1-(3-(trifluoromethyl)pyridin-2-yl)piperidin-3-yl)methyl)piperidine-3,4,5-triol]	∗∗∗	enhanced binding specificity

Now from value to compound:

GBA2 IC50 [1]	binding specificity, Ki(other molecule)/Ki(GBA2) or IC50(other molecule)/IC50(GBA2) [2]	Compound
∗∗∗	enhanced binding specificity	OC[C@H]1[C@@H](O)[C@H](O)[C@@H](O)CN1C[C@H]1CC[C@@H](C(F)F)CC1 [Example 311, (2S,3R,4R,5S)-1-(((1s,4R)-4-(difluoromethyl)cyclohexyl)methyl)-2-(hydroxymethyl)piperidine-3,4,5-triol]
∗∗∗	enhanced binding specificity	CC(F)(F)[C@H]1CC[C@@H](CN2C[C@H](O)[C@@H](O)[C@H](O)[C@@H]2CO)CC1 [Example 313, (2S,3R,4R,5S)-1-(((1s,4R)-4-(1,1-difluoroethyl)cyclohexyl)methyl)-2-(hydroxymethyl)piperidine-3,4,5-triol]
∗∗∗	enhanced binding specificity	CC(F)(F)[C@H]1CC[C@H](CN2C[C@H](O)[C@@H](O)[C@H](O)[C@@H]2CO)CC1 [Example 314, (2S,3R,4R,5S)-1-(((1r,4S)-4-(1,1-difluoroethyl)cyclohexyl)methyl)-2-(hydroxymethyl)piperidine-3,4,5-triol]
∗∗∗	enhanced binding specificity	OC[C@H]1[C@@H](O)[C@H](O)[C@@H](O)CN1C[C@H]1CC[C@H](C(F)(F)F)CC1 [Example 13, (2S,3R,4R,5S)-2-(hydroxymethyl)-1-(((1r,4R)-4-(trifluoromethyl)cyclohexyl)methyl)piperidine-3,4,5-triol]
∗∗∗	enhanced binding specificity	OC[C@H]1[C@@H](O)[C@H](O)[C@@H](O)CN1C[C@H]1CC[C@H](C(F)F)CC1 [Example 312, (2S,3R,4R,5S)-1-(((1r,4S)-4-(difluoromethyl)cyclohexyl)methyl)-2-(hydroxymethyl)piperidine-3,4,5-triol]
∗∗∗	enhanced binding specificity	OC[C@H]1[C@@H](O)[C@H](O)[C@@H](O)CN1CCC1CCCCC1 [Example 16, (2S,3R,4R,5S)-1-(2-cyclohexylethyl)-2-(hydroxymethyl)piperidine-3,4,5-triol]
